Data as given in ChEMBL document CHEMBL3817825, “Synthesis and biological evaluation of Schiff base-linked imidazolyl naphthalimides as novel potential anti-MRSA agents” (2016).
≈ marks a conversion by molar mass, not a printed value.

What was measured:
Staphylococcus aureus [1] = experiment: Antibacterial activity against Staphylococcus aureus ATCC25923 after 24 hrs by two fold serial dilution method; type: functional; details: ATCC25923, 24 h
Shigella dysenteriae = experiment: Antibacterial activity against Shigella dysenteriae after 24 hrs by two fold serial dilution method; type: functional
Staphylococcus aureus [2] = experiment: Antibacterial activity against methicillin-resistant Staphylococcus aureus N315 after 24 hrs by two fold serial dilution method; type: functional; details: N315, 24 h
Candida albicans = experiment: Antifungal activity against Candida albicans ATCC76615 after 24 hrs by two fold serial dilution method; type: functional; details: ATCC76615, 24 h
Escherichia coli [3] = experiment: Antibacterial activity against Escherichia coli JM109 after 24 hrs by two fold serial dilution method; type: functional; details: JM109, 24 h
Bacillus = experiment: Antibacterial activity against Bacillus proteus ATCC13315 after 24 hrs by two fold serial dilution method; type: functional; details: ATCC13315, 24 h
Candida = experiment: Antifungal activity against Candida mycoderma ATCC10231 after 24 hrs by two fold serial dilution method; type: functional; details: ATCC10231, 24 h
Micrococcus luteus = experiment: Antibacterial activity against Micrococcus luteus ATCC4698 after 24 hrs by two fold serial dilution method; type: functional; details: ATCC4698, 24 h
Salmonella typhi = experiment: Antibacterial activity against Bacillus typhi after 24 hrs by two fold serial dilution method; type: functional, Salmonella enterica subsp. enterica serovar Typhi; details: Salmonella enterica
Saccharomyces cerevisiae = experiment: Antifungal activity against Beer yeast ATCC9763 after 24 hrs by two fold serial dilution method; type: functional; details: ATCC9763, 24 h
Escherichia coli [4] = experiment: Antibacterial activity against Escherichia coli DH52 after 24 hrs by two fold serial dilution method; type: functional; details: DH52, 24 h
Aspergillus flavus = experiment: Antifungal activity against Aspergillus flavus ATCC204304 after 24 hrs by two fold serial dilution method; type: functional; details: ATCC204304, 24 h
Cyberlindnera jadinii = experiment: Antifungal activity against Candida utilis ATCC9950 after 24 hrs by two fold serial dilution method; type: functional; details: Williopsis jadinii, ATCC9950, 24 h
Pseudomonas aeruginosa = experiment: Antibacterial activity against Pseudomonas aeruginosa ATCC27853 after 24 hrs by two fold serial dilution method; type: functional; details: ATCC27853, 24 h
Bacillus subtilis = experiment: Antibacterial activity against Bacillus subtilis ATCC6633 after 24 hrs by two fold serial dilution method; type: functional; details: ATCC6633, 24 h
Escherichia coli [5] = experiment: Potency index, ratio of chloromycin MIC to compound MIC for Escherichia coli JM109; type: functional

Row | Structure (SMILES) | MIC (Staphylococcus aureus [1]) [µM] | MIC (Shigella dysenteriae) [µM] | MIC (Staphylococcus aureus [2]) [µM] | MIC (Candida albicans) [µM] | MIC (Escherichia coli [3]) [µM] | MIC (Bacillus) [µM] | MIC (Candida) [µM] | MIC (Micrococcus luteus) [µM] | MIC (Salmonella typhi) [µM] | MIC (Saccharomyces cerevisiae) [µM] | MIC (Escherichia coli [4]) [µM] | MIC (Aspergillus flavus) [µM] | MIC (Cyberlindnera jadinii) [µM] | MIC (Pseudomonas aeruginosa) [µM] | MIC (Bacillus subtilis) [µM] | Ratio (Escherichia coli [5])
1 | CCCCc1nc(Cl)c(/C=N/N2C(=O)c3cccc4c(N5CCOCC5)ccc(c34)C2=O)n1Cc1ccc(Cl)cc1 | 870 (≈ 514 µg/mL) | 0.87 (≈ 0.514 µg/mL) | 430 (≈ 254 µg/mL) | 430 (≈ 254 µg/mL) | 430 (≈ 254 µg/mL) | 430 (≈ 254 µg/mL) | 430 (≈ 254 µg/mL) | 430 (≈ 254 µg/mL) | 0.43 (≈ 0.254 µg/mL) | 220 (≈ 130 µg/mL) | 430 (≈ 254 µg/mL) | 870 (≈ 514 µg/mL) | 220 (≈ 130 µg/mL) | 870 (≈ 514 µg/mL) | 430 (≈ 254 µg/mL) | –
2 | CCCCCCCCCCCCn1c(CCCC)nc(Cl)c1/C=N/N1C(=O)c2cccc3c(N4CCOCC4)ccc(c23)C1=O | 400 (≈ 254 µg/mL) | 0.8 (≈ 0.507 µg/mL) | 200 (≈ 127 µg/mL) | 810 (≈ 514 µg/mL) | 10 (≈ 6.34 µg/mL) | 800 (≈ 507 µg/mL) | 810 (≈ 514 µg/mL) | 400 (≈ 254 µg/mL) | 0.8 (≈ 0.507 µg/mL) | 400 (≈ 254 µg/mL) | 800 (≈ 507 µg/mL) | 810 (≈ 514 µg/mL) | 10 (≈ 6.34 µg/mL) | 800 (≈ 507 µg/mL) | 800 (≈ 507 µg/mL) | 10
3 | CCCCc1nc(Cl)c(/C=N/N2C(=O)c3cccc4c(N5CCCC5)ccc(c34)C2=O)[nH]1 | 570 (≈ 256 µg/mL) | 0.57 (≈ 0.256 µg/mL) | 280 (≈ 126 µg/mL) | 140 (≈ 63 µg/mL) | 280 (≈ 126 µg/mL) | 570 (≈ 256 µg/mL) | 140 (≈ 63 µg/mL) | 280 (≈ 126 µg/mL) | 0.57 (≈ 0.256 µg/mL) | 570 (≈ 256 µg/mL) | 280 (≈ 126 µg/mL) | 570 (≈ 256 µg/mL) | 280 (≈ 126 µg/mL) | 570 (≈ 256 µg/mL) | 570 (≈ 256 µg/mL) | –
4 | CCCCc1nc(Cl)c(/C=N/N2C(=O)c3cccc4c(N5CCOCC5)ccc(c34)C2=O)n1Cc1cccc(F)c1 | 220 (≈ 126 µg/mL) | 0.89 (≈ 0.511 µg/mL) | 440 (≈ 253 µg/mL) | 440 (≈ 253 µg/mL) | 440 (≈ 253 µg/mL) | 220 (≈ 126 µg/mL) | 440 (≈ 253 µg/mL) | 440 (≈ 253 µg/mL) | 0.89 (≈ 0.511 µg/mL) | 440 (≈ 253 µg/mL) | 440 (≈ 253 µg/mL) | 440 (≈ 253 µg/mL) | 440 (≈ 253 µg/mL) | 440 (≈ 253 µg/mL) | 440 (≈ 253 µg/mL) | –
5 | CCCCCn1c(CCCC)nc(Cl)c1/C=N/N1C(=O)c2cccc3c(N4CCOCC4)ccc(c23)C1=O | 240 (≈ 129 µg/mL) | 0.48 (≈ 0.257 µg/mL) | 480 (≈ 257 µg/mL) | 480 (≈ 257 µg/mL) | 480 (≈ 257 µg/mL) | 480 (≈ 257 µg/mL) | 480 (≈ 257 µg/mL) | 240 (≈ 129 µg/mL) | 0.24 (≈ 0.129 µg/mL) | 480 (≈ 257 µg/mL) | 480 (≈ 257 µg/mL) | 480 (≈ 257 µg/mL) | 7 (≈ 3.75 µg/mL) | 960 (≈ 515 µg/mL) | 240 (≈ 129 µg/mL) | –
6 | CCCCc1nc(Cl)c(/C=N/N2C(=O)c3cccc4c(N5CCOCC5)ccc(c34)C2=O)n1Cc1ccc(OC)cc1 | 440 (≈ 258 µg/mL) | 0.44 (≈ 0.258 µg/mL) | 440 (≈ 258 µg/mL) | 430 (≈ 252 µg/mL) | 870 (≈ 510 µg/mL) | 220 (≈ 129 µg/mL) | 870 (≈ 510 µg/mL) | 870 (≈ 510 µg/mL) | 0.44 (≈ 0.258 µg/mL) | 220 (≈ 129 µg/mL) | 440 (≈ 258 µg/mL) | 430 (≈ 252 µg/mL) | 430 (≈ 252 µg/mL) | 440 (≈ 258 µg/mL) | 440 (≈ 258 µg/mL) | –
7 | CCCCc1nc(Cl)c(/C=N/N2C(=O)c3cccc4c(N5CCOCC5)ccc(c34)C2=O)[nH]1 | 270 (≈ 126 µg/mL) | 0.07 (≈ 0.0326 µg/mL) | 70 (≈ 32.6 µg/mL) | 270 (≈ 126 µg/mL) | 270 (≈ 126 µg/mL) | 270 (≈ 126 µg/mL) | 140 (≈ 65.2 µg/mL) | 270 (≈ 126 µg/mL) | 0.27 (≈ 0.126 µg/mL) | 270 (≈ 126 µg/mL) | 270 (≈ 126 µg/mL) | 550 (≈ 256 µg/mL) | 550 (≈ 256 µg/mL) | 70 (≈ 32.6 µg/mL) | 550 (≈ 256 µg/mL) | –
8 | CCCCc1nc(Cl)c(/C=N/N2C(=O)c3cccc4c(N5CCOCC5)ccc(c34)C2=O)n1Cc1ccccc1Cl | 870 (≈ 514 µg/mL) | 0.22 (≈ 0.13 µg/mL) | 430 (≈ 254 µg/mL) | 430 (≈ 254 µg/mL) | 110 (≈ 65 µg/mL) | 430 (≈ 254 µg/mL) | 870 (≈ 514 µg/mL) | 870 (≈ 514 µg/mL) | 0.43 (≈ 0.254 µg/mL) | 430 (≈ 254 µg/mL) | 870 (≈ 514 µg/mL) | 220 (≈ 130 µg/mL) | 430 (≈ 254 µg/mL) | 870 (≈ 514 µg/mL) | 430 (≈ 254 µg/mL) | –
9 | CCCCCCCn1c(CCCC)nc(Cl)c1/C=N/N1C(=O)c2cccc3c(N4CCOCC4)ccc(c23)C1=O | 450 (≈ 254 µg/mL) | 0.91 (≈ 0.513 µg/mL) | 450 (≈ 254 µg/mL) | 230 (≈ 130 µg/mL) | 450 (≈ 254 µg/mL) | 450 (≈ 254 µg/mL) | 450 (≈ 254 µg/mL) | 450 (≈ 254 µg/mL) | 0.45 (≈ 0.254 µg/mL) | 450 (≈ 254 µg/mL) | 450 (≈ 254 µg/mL) | 450 (≈ 254 µg/mL) | 450 (≈ 254 µg/mL) | 450 (≈ 254 µg/mL) | 450 (≈ 254 µg/mL) | –
10 | CCCCc1nc(Cl)c(/C=N/N2C(=O)c3cccc4c(N5CCCCC5)ccc(c34)C2=O)[nH]1 | 280 (≈ 130 µg/mL) | 0.28 (≈ 0.13 µg/mL) | 280 (≈ 130 µg/mL) | 140 (≈ 65 µg/mL) | 560 (≈ 260 µg/mL) | 560 (≈ 260 µg/mL) | 550 (≈ 255 µg/mL) | 280 (≈ 130 µg/mL) | 0.56 (≈ 0.26 µg/mL) | 550 (≈ 255 µg/mL) | 560 (≈ 260 µg/mL) | 550 (≈ 255 µg/mL) | 280 (≈ 130 µg/mL) | 560 (≈ 260 µg/mL) | 280 (≈ 130 µg/mL) | –
